Laboratory results published in PMC3578785, “Improved BM212 MmpL3 Inhibitor Analogue Shows Efficacy in Acute Murine Model of Tuberculosis Infection” (PLoS ONE, 2013).

Assays:
in vitro [1] = type: in vitro ADME, mouse
Protocol: (§1) Protocol S6. Microsomal fraction stability experimental procedure.
(§2) Pooled mouse and human liver microsomes are purchased from Xenotech. Microsomes (final protein concentration 0.5 mg/mL, MgCl2 (final concentration = 5 mM) and test compound (final substrate concentration = 0.5 µM; final DMSO concentration = 0.5%) in 0.1M phosphate buffer pH 7.4 were pre-incubated at 37°C prior to the addition of NADPH (final concentration = 1 mM) to initiate the reaction. The final incubation volume was 600 µL. A control incubation was included for each compound tested where 0.1 M phosphate buffer pH 7.4 is added instead of NADPH (minus NADPH). One control compound was included with each species. All incubations were performed singularly for each test compound. Each compound was incubated for 30 minutes and samples (90 µL) of incubate were taken at 0, 5, 15, 20 and 30 min. The control (minus NADPH) was sampled at 30 min only. The reactions were stopped by the addition of sample to 200 µL Acetonitrile:Methanol 3:1 containing internal standard. The terminated samples were centrifuged at 2.500 rpm for 20 min at 4°C to precipitate the protein.
(§3) Quantitative Analysis: following protein precipitation, the samples were analyzed using specific […]
(§4) Data Analysis: from a plot of ln peak area ratio (compound peak area/internal standard peak area) against time, the gradient of the line was determined. Subsequently, half-life and intrinsic clearance were calculated using the equations below:
(§5) Elimination rate constant (k) = (- gradient)
(§6) Half life (t1/2) (min) = […]
(§7) Intrinsic Clearance (CLint) (mL/min/g protein) = […] where V=Incubation volume mL/g microsomal protein.

[2] = target: human serum albumin (HSA) (Homo sapiens, UniProt P02768); type: in vitro ADME
human serum albumin (HSA), sequence (P02768 25-609): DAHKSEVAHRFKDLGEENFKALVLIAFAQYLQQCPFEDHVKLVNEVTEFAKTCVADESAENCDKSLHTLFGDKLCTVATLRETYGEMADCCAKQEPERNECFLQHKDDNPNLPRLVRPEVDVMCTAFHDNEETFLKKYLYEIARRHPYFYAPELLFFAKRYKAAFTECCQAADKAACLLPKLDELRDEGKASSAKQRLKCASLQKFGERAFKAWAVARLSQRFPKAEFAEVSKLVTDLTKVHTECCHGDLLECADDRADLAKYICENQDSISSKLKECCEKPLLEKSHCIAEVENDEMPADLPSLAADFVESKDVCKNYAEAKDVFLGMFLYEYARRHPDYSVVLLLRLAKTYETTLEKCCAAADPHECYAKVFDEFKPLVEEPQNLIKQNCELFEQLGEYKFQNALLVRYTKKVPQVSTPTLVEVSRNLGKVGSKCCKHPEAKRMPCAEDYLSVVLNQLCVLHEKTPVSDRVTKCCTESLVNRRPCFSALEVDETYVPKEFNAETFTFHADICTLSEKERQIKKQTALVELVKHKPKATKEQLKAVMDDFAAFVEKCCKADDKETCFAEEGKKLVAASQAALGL
Protocol: Standard physical chemical property determination methods were used. Please see the Supporting Information for details.
Protocol S4. Determination of compounds binding to human serum albumin (HSA).
The determination of compounds binding to human serum albumin (HSA) was carried out by retention time measurements using immobilized HSA HPLC columns obtained from Chiral Technologies Ltd, France. The column dimensions were 50x3 mm. The mobile phase was 50 mM ammonium acetate buffer pH 7.4 and HPLC grade 2-propanol. HPLC Method: flow rate 1.8 ml/min applying 2.5 min 2-propanol gradient up to 30%. From 2.5 min to 4.5 min the 2-propanol concentration in the mobile phase was kept at 30%. From 4.5 min to 4.6 min, the 2-propanol concentration was decreased to 0% and kept like that until the end of the gradient run which was 6 min. A calibration set of compounds was first analyzed for which plasma protein binding data were available: Warfarin, Nizatidine, Bromazepam, Carbamazepine, Budesonide, Nicardipine, Indomethacine, Piroxicam, Naproxen. The calculation of the HSA binding data expressed as %HSA was carried out as described previously.

in vitro [3] = type: in vitro ADME, human
Protocol: as §1, §2, §3, §4, §5, §6, §7

[4] = at 1 µM
[5] = Oral pharmacokinetic studies in mice, peripheral total blood; settings: female, C57BL/6, mouse, whole blood
H37Rv = test system: H37Rv; set-up: species or system mice; settings: mouse, in vivo, po
[6] = Vero cytotoxicity assay (MTT); settings: African green monkey, Vero cells

Row | SMILES | Cli mouse (in vitro [1]) [mL/min/g] | t1/2 in mouse microsomes (in vitro [1]; mouse microsomes) [min] | HSA (%) binding [2] [%] | CC50 (Vero cells) [µM] | Tox50, cytotoxicity in HepG2 cells (HepG2 cells) [µM] | Cli human (in vitro [3]) [mL/min/g] | t1/2 in human microsomes (in vitro [3]; human microsomes) [min] | PPB (%) [4] [%] | CHILogD pH 2 (pH 2) | CHILogD pH 7.4 (pH 7.4) | CHILogD pH 10.5 (pH 10.5) | AUC(0-inf) ([5]; 0.98 mg/kg) [µM·h] | ED99 (dose that reduces 2 logs bacterial burden in the lungs of mice; 95% confidence interval in parenthesis) (H37Rv) | CC50 at 72 h [6] [µM] | AUC(0-inf) ([5]; 27.5 mg/kg) [µM·h]
1 | COc1ccc(-c2cc(CN3CCOCC3)c(C)n2-c2ccc(C(C)C)cc2)cc1 [Compound 25] | 10.55 | <5 | 97.02 | 12.9 | 15.9 | 0.5 | >30 | >99.9 | 1.36 | 4.36 | 4.86 |  |  |  | 
2 | NNC(=O)c1ccncc1 [Isoniazid] |  |  |  |  |  |  |  |  |  |  |  | 5.5 | 0.95 (0.86–1.1 ) mg/kg | > 256 | 
3 | COc1c(N2C[C@@H]3CCCN[C@@H]3C2)c(F)cc2c(=O)c(C(=O)O)cn(C3CC3)c12 [Moxifloxacin] |  |  |  |  |  |  |  |  |  |  |  |  | 28 (26–29) mg/kg |  | 9.4
